{
  "source": "PubChem BioAssay AID651896",
  "about": "(Broad Institute, 2012)",
  "test_system": "L-6 rat myocyte cytotoxicity, plate reader",
  "test": "cytotoxicity in L-6 rat myocytes, dose response, cytotoxicity control, cell-based, plate reader, cherry-pick (AID 651896)",
  "data": [
    {"compound": "C[C@@H]1CN([C@@H](C)CO)C(=O)c2cccc(NC(=O)c3ccncc3)c2O[C@H]1CN(C)Cc1ccc(Oc2ccccc2)cc1", "values": [
      {"measurement": "IC50", "result": 10.8, "unit": "µM"}
    ]}
  ]
}
